Measured values reported in patent US20240246931A1, “COMPOUNDS AS PD1/PD-L1 INHIBITORS AND METHODS THEREOF” (JUBILANT PRODEL LLC, priority 2021, published 2024).

Biological target: T1, PD-1/PD-L1 interaction (Homo sapiens, UniProt Q9NZQ7)
T1 construct: purchased CisBio 63ADK000CPAPEG
Assay: PD-1/PD-L1 HTRF binding assay (CisBio kit)
Conditions: HTRF PD1/PD-L1 inhibition assay
Method: PD-L1 Enzyme Assay: Homogenous Time-Resolved Fluorescence (HTRF) Binding Assay
All binding studies were performed using PD-1/PD-L1 Binding Assay Kit from CisBio (Catalog #63ADK000CPAPEG), according to the manufacturer's protocol. The interaction between Tag1-PD-1 and […] was detected by anti-Tag1-Eu^3+ (HTRF donor) and anti-Tag2-XL665 (HTRF acceptor). When the donor and acceptor antibodies were brought to close proximity due to PD-1 and PD-L1 binding, excitation of the donor antibody triggered fluorescent resonance energy transfer (FRET) towards the acceptor antibody, which in turn emitted specifically at 665 nm. This specific signal is positively proportional to PD-1/PD-L1 interaction. The compounds blocking PD-1/PD-L1 interaction will cause a reduction in HTRF signal. The necessary reagents were mixed in the following order: 2 μL compounds (or diluents buffer), 4 μL PD-L1 protein, 4 μL PD-1 protein. After an incubation of 15 minutes, 5 μL of anti-Tag1-Eu^3+ and 5 μL of anti-Tag2-XL665 were added. The plate was sealed and incubated at room temperature for 1 h. The fluorescence emission was read at two different wavelengths (665 nm and 620 nm) on a BMG PheraStar® multi-plate reader.
Results were calculated from the 665 nm and 620 nm fluorescence signal and expressed in HTRF ratio=(665 nm/620 nm)×10^4.
Compounds having IC50<100 nM are designated as “A”; 100-500 nM are designated as “B”; and >500 nM are designated as “C” respectively.

T1 sequence (Q9NZQ7 19-238 limits assumed): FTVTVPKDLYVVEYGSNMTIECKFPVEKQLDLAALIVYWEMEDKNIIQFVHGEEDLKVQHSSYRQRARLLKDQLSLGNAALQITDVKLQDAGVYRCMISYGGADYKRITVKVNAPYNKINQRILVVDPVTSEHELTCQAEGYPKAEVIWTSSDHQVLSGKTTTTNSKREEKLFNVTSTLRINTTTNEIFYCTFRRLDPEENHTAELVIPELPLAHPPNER

Row | IC50 | Structure (SMILES)
1 | 100 to 500 nM | Cc1c(COc2cc(OCc3cncc(C#N)c3)c(CN3CCC3CO)c3c2CCC3)cccc1-c1ccc(O)cc1 (stereo not drawn) [Example 55, 5-(((7-((4′-hydroxy-2-methyl-[1,1′-biphenyl]-3-yl)methoxy)-4-((2-(hydroxymethyl)azetidin-1-yl)methyl)-2,3-dihydro-1H-inden-5-yl)oxy)methyl)nicotinonitrile]
2 | 100 to 500 nM | Cc1ccc(F)c(-c2cccc(COc3cc(OCc4cncc(C#N)c4)c(CN4CCC4CO)c4c3CCC4)c2C)c1 (stereo not drawn) [Example 56, 5-(((7-((2′-fluoro-2,5′-dimethyl-[1,1′-biphenyl]-3-yl)methoxy)-4-((2-(hydroxymethyl)azetidin-1-yl)methyl)-2,3-dihydro-1H-inden-5-yl)oxy)methyl)nicotinonitrile]
3 | 100 to 500 nM | Cc1c(COc2cc(OCc3cncc(C#N)c3)c(CN3CCC3CO)c3c2CCC3)cccc1-c1ccccc1C(F)(F)F (stereo not drawn) [Example 60, 5-(((4-((2-(hydroxymethyl)azetidin-1-yl)methyl)-7-((2-methyl-2′-(trifluoromethyl)-[1,1′-biphenyl]-3-yl)methoxy)-2,3-dihydro-1H-inden-5-yl)oxy)methyl)nicotinonitrile]
4 | < 100 nM | Cc1c(COc2cc(OCc3cncc(C#N)c3)c(CN3CCC3CO)c3c2CCC3)cccc1-c1ccccc1F (stereo not drawn) [Example 62, 5-(((7-((2′-fluoro-2-methyl-[1,1′-biphenyl]-3-yl)methoxy)-4-((2-(hydroxymethyl)azetidin-1-yl)methyl)-2,3-dihydro-1H-inden-5-yl)oxy)methyl)nicotinonitrile]
5 | < 100 nM | Cc1c(COc2cc(OCc3cncc(C#N)c3)c(CN3CCC3CO)c3c2CCC3)cccc1-c1cccc(F)c1 (stereo not drawn) [Example 64, 5-(((7-((3′-fluoro-2-methyl-[1,1′-biphenyl]-3-yl)methoxy)-4-((2-(hydroxymethyl)azetidin-1-yl)methyl)-2,3-dihydro-1H-inden-5-yl)oxy)methyl)nicotinonitrile]
6 | < 100 nM | COc1cccc(-c2cccc(COc3cc(OCc4cncc(C#N)c4)c(CN4CCC4CO)c4c3CCC4)c2C)c1 (stereo not drawn) [Example 65, 5-(((4-((2-(hydroxymethyl)azetidin-1-yl)methyl)-7-((3′-methoxy-2-methyl-[1,1′-biphenyl]-3-yl)methoxy)-2,3-dihydro-1H-inden-5-yl)oxy)methyl)nicotinonitrile]
7 | < 100 nM | Cc1c(COc2cc(OCc3cncc(C#N)c3)c(CN3CCC3CO)c3c2CCC3)cccc1-c1cccc(O)c1 (stereo not drawn) [Example 67, 5-(((7-((3′-hydroxy-2-methyl-[1,1′-biphenyl]-3-yl)methoxy)-4-((2-(hydroxymethyl)azetidin-1-yl)methyl)-2,3-dihydro-1H-inden-5-yl)oxy)methyl)nicotinonitrile]
8 | > 500 nM | Cc1c(COc2cc(OCc3cncc(C#N)c3)c(CN3CCC3CO)c3c2CCC3)cccc1-c1cccc2cccnc12 (stereo not drawn) [Example 69, 5-(((4-((2-(hydroxymethyl)azetidin-1-yl)methyl)-7-((2-methyl-3-(quinolin-8-yl)benzyl)oxy)-2,3-dihydro-1H-inden-5-yl)oxy)methyl)nicotinonitrile]
9 | > 500 nM | Cc1c(COc2cc(OCc3cncc(C#N)c3)c(CN3CCC3CO)c3c2CCC3)cccc1-c1ccncc1 (stereo not drawn) [Example 70, 5-(((4-((2-(hydroxymethyl)azetidin-1-yl)methyl)-7-((2-methyl-3-(pyridin-4-yl)benzyl)oxy)-2,3-dihydro-1H-inden-5-yl)oxy)methyl)nicotinonitrile]
10 | 100 to 500 nM | Cc1c(COc2cc(OCc3cncc(C#N)c3)c(CN3CCC3CO)c3c2CCC3)cccc1-c1cccnc1 (stereo not drawn) [Example 71, 5-(((4-((2-(hydroxymethyl)azetidin-1-yl)methyl)-7-((2-methyl-3-(pyridin-3-yl)benzyl)oxy)-2,3-dihydro-1H-inden-5-yl)oxy)methyl)nicotinonitrile]
11 | 100 to 500 nM | Cc1ccc(-c2cccc(COc3cc(OCc4cncc(C#N)c4)c(CN4CCC4CO)c4c3CCC4)c2C)cc1 (stereo not drawn) [Example 73, 5-(((7-((2,4′-dimethyl-[1,1′-biphenyl]-3-yl)methoxy)-4-((2-(hydroxymethyl)azetidin-1-yl)methyl)-2,3-dihydro-1H-inden-5-yl)oxy)methyl)nicotinonitrile]

More lines, now with the values behind:

Row | Structure (SMILES) | IC50
12 | Cc1c(COc2cc(OCc3cncc(C#N)c3)c(C(=O)N3CC[C@H](CO)C3)c3c2CCC3)cccc1-c1ccccc1 [Example 51, (S)-5-(((4-(3-(hydroxymethyl)pyrrolidine-1-carbonyl)-7-((2-methyl-[1,1′-biphenyl]-3-yl)methoxy)-2,3-dihydro-1H-inden-5-yl)oxy)methyl)nicotinonitrile] | 100 to 500 nM
13 | CC(=O)NCC1CCCN1Cc1c(OCc2cncc(C#N)c2)cc(OCc2cccc(-c3ccccc3)c2C)c2c1CCC2 (stereo not drawn) [Example 52, N-((1-((5-((5-cyanopyridin-3-yl)methoxy)-7-((2-methyl-[1,1′-biphenyl]-3-yl)methoxy)-2,3-dihydro-1H-inden-4-yl)methyl)pyrrolidin-2-yl)methyl)acetamide] | < 100 nM
14 | Cc1c(COc2cc(OCc3cncc(C#N)c3)c(CN3CCCC3CN)c3c2CCC3)cccc1-c1ccccc1 (stereo not drawn) [Example 53, 5-(((4-((2-(aminomethyl)pyrrolidin-1-yl)methyl)-7-((2-methyl-[1,1′-biphenyl]-3-yl)methoxy)-2,3-dihydro-1H-inden-5-yl)oxy)methyl)nicotinonitrile] | < 100 nM
15 | Cc1c(Br)cccc1COc1cc(OCc2cncc(C#N)c2)c(CN2CCC2CO)c2c1CCC2 (stereo not drawn) [Example 54, 5-(((7-((3-bromo-2-methylbenzyl)oxy)-4-((2-(hydroxymethyl)azetidin-1-yl)methyl)-2,3-dihydro-1H-inden-5-yl)oxy)methyl)nicotinonitrile] | > 500 nM
16 | Cc1c(COc2cc(OCc3cncc(C#N)c3)c(CN3CCC3CO)c3c2CCC3)cccc1-c1cn[nH]c1 (stereo not drawn) [Example 57, 5-(((4-((2-(hydroxymethyl)azetidin-1-yl)methyl)-7-((2-methyl-3-(1H-pyrazol-4-yl)benzyl)oxy)-2,3-dihydro-1H-inden-5-yl)oxy)methyl)nicotinonitrile] | > 500 nM
17 | COc1ccc(-c2cccc(COc3cc(OCc4cncc(C#N)c4)c(CN4CCC4CO)c4c3CCC4)c2C)c(C)c1 (stereo not drawn) [Example 58, 5-(((4-((2-(hydroxymethyl)azetidin-1-yl)methyl)-7-((4′-methoxy-2,2′-dimethyl-[1,1′-biphenyl]-3-yl)methoxy)-2,3-dihydro-1H-inden-5-yl)oxy)methyl)nicotinonitrile] | > 500 nM
18 | Cc1c(COc2cc(OCc3cncc(C#N)c3)c(CN3CCC3CO)c3c2CCC3)cccc1-c1cncnc1 (stereo not drawn) [Example 59, 5-(((4-((2-(hydroxymethyl)azetidin-1-yl)methyl)-7-((2-methyl-3-(pyrimidin-5-yl)benzyl)oxy)-2,3-dihydro-1H-inden-5-yl)oxy)methyl)nicotinonitrile] | > 500 nM
19 | Cc1c(COc2cc(OCc3cncc(C#N)c3)c(CN3CCC3CO)c3c2CCC3)cccc1-c1ccc(N2CCOCC2)nc1 (stereo not drawn) [Example 61, 5-(((4-((2-(hydroxymethyl)azetidin-1-yl)methyl)-7-((2-methyl-3-(6-morpholinopyridin-3-yl)benzyl)oxy)-2,3-dihydro-1H-inden-5-yl)oxy)methyl)nicotinonitrile] | > 500 nM
20 | COc1ccc(-c2cccc(COc3cc(OCc4cncc(C#N)c4)c(CN4CCC4CO)c4c3CCC4)c2C)cc1 (stereo not drawn) [Example 63, 5-(((4-((2-(hydroxymethyl)azetidin-1-yl)methyl)-7-((4′-methoxy-2-methyl-[1,1′-biphenyl]-3-yl)methoxy)-2,3-dihydro-1H-inden-5-yl)oxy)methyl)nicotinonitrile] | > 500 nM
21 | Cc1c(COc2cc(OCc3cncc(C#N)c3)c(CN3CCC3CO)c3c2CCC3)cccc1-c1ccc(OC(F)(F)F)cc1 (stereo not drawn) [Example 66, 5-(((4-((2-(hydroxymethyl)azetidin-1-yl)methyl)-7-((2-methyl-4′-(trifluoromethoxy)-[1,1′-biphenyl]-3-yl)methoxy)-2,3-dihydro-1H-inden-5-yl)oxy)methyl)nicotinonitrile] | > 500 nM
22 | Cc1c(COc2cc(OCc3cncc(C#N)c3)c(CN3CCC3CO)c3c2CCC3)cccc1-c1cnn(C)c1 (stereo not drawn) [Example 68, 5-(((4-((2-(hydroxymethyl)azetidin-1-yl)methyl)-7-((2-methyl-3-(1-methyl-1H-pyrazol-4-yl)benzyl)oxy)-2,3-dihydro-1H-inden-5-yl)oxy)methyl)nicotinonitrile] | > 500 nM
23 | Cc1c(COc2cc(OCc3cncc(C#N)c3)c(CN3CC[C@H]3CO)c3c2CCC3)cccc1-c1cnc2[nH]ccc2c1 [Example 72, (S)-5-(((4-((2-(hydroxymethyl)azetidin-1-yl)methyl)-7-((2-methyl-3-(1H-pyrrolo[2,3-b]pyridin-5-yl)benzyl)oxy)-2,3-dihydro-1H-inden-5-yl)oxy)methyl)nicotinonitrile] | 100 to 500 nM
24 | Cc1c(COc2cc(OCc3cncc(C#N)c3)c(CN3CCC3CO)c3c2CCC3)cccc1-c1cnc2[nH]ccc2c1 (stereo not drawn) [Example 74, 5-(((4-((2-(hydroxymethyl)azetidin-1-yl)methyl)-7-((2-methyl-3-(1H-pyrrolo[2,3-b]pyridin-5-yl)benzyl)oxy)-2,3-dihydro-1H-inden-5-yl)oxy)methyl)nicotinonitrile 2,2,2-trifluoroacetate] | > 500 nM
